The record followed here is patent US20250346556A1, “IMPROVEMENTS IN OR RELATING TO ORGANIC COMPOUNDS” (Givaudan SA, priority 2019, published 2025).

Each structure is given as a SMILES string.

Common to all, as to format: in vivo
Test [1] is described as follows: Taste evaluation, comparison with further derivatives, by 5 trained panellists. The settings on record: 20 ppm in aqueous NaCl solution (0.5% by weight); compared with 20 ppm compound Ia. The method, then:
An aqueous NaCl solution (0.5% by weight) was prepared. To this base was added: • a) 20 ppm of the compound Ia (sample 7a); • b) 20 ppm of the compound Ib (sample 7b); • c) 20 ppm of the compound Ic (sample 7c).
The tastes of the three samples 7a, 7b and 7c have been evaluated by 5 trained panellists.

A short description of test [2]: Taste evaluation, comparison with MSG, by 5 trained panellists. The method, then:
An aqueous NaCl solution (0.5% by weight) was prepared. To this base was added: • a) 30 ppm of the compound Ia (sample 6a); • b) 200 ppm of MSG (sample 6b, benchmark).
The tastes of the two samples 6a and 6b have been evaluated by 5 trained panellists. They were asked to rate the intensity of sample 6a as difference to sample 6b and to describe the overall effect. Typically, the following descriptors are used to describe the effect: umami, salty, bitter, overall sweet.

Test [3] is described as follows: Taste evaluation of amide ester analogues by four experienced tasters. The settings on record: 20 ppm in aqueous NaCl (0.5% by weight) and MSG (0.05% by weight). As to the method: An aqueous solution of NaCl (0.5% by weight) and MSG (0.05% by weight) was prepared. To this base was added: • a) 20 ppm of the mixture of the compound (Id+Ie) in a ratio 1:2 (sample 8a); • b) 20 ppm of the compound If (sample 8b).
A group of four experienced tasters compared the samples 8a and 8b with the pure base.

Take `C/C=C(\C)C(=O)NCCCCNC(=O)/C=C/c1ccc(OC)cc1` [compound Ib, (E)-N-(4-((E)-3-(4-methoxyphenyl)acrylamido)butyl)-2-methylbut-2-enamide]: the “taste description in comparison to sample 7a” value in test [1] is “more umami, stronger and more lingering, more sweet, but having an off note, animalic, floral sweet”.
Take `C/C=C(\C)C(=O)NCCCCNC(=O)C=Cc1ccccc1` [compound Ia, (E)-N-(4-cinnamamidobutyl)-2-methylbut-2-enamide]: the overall preference entry in test [2] (30 ppm in 0.5% NaCl versus 200 ppm MSG (sample 6b)) was “preferred over sample 6b”. For the same compound, the “umami on bitter level versus benchmark” value in test [2] (30 ppm in 0.5% NaCl versus 200 ppm MSG (sample 6b, benchmark)) is “a little higher than benchmark”. For the same compound, the taste description result in test [2] (30 ppm in aqueous NaCl solution (0.5% by weight), 5 trained panellists) was “umami, brothy and longlasting”.
Turning to `C/C=C(\C)C(=O)NCCCCOC(=O)C=Cc1ccccc1` [compound If, 4-((E)-2-methylbut-2-enamido)butyl cinnamate], the additional taste description entry in test [3] is listed as “a pleasant taste experience”. In test [3] (four tasters, unanimous), the “umami compared with the pure base” value is listed as “more umami than the base”.
With `C/C=C(\C)C(=O)NCCCCNC(=O)c1ccc(OC)cc1` [compound Ic, (E)-4-methoxy-N-(4-(2-methylbut-2-enamido)butyl)benzamide], the “taste description in comparison to sample 7a” value in test [1] is “more umami and cleaner umami than sample 7a”.
